System: HCV replicon, genotype-1a variant with glutamine 30 changed to glutamate in the NS5A protein
Test: microbe, parasite or virus in culture
Type: cell-based, HCV genotype 1a
Settings: HCV replicon genotype 1a Q30E (Q→E) variant; test compound titrated with an NS5A-targeting compound (BMS-790052 fixed at 200 nM); ranking of synergist activity
Excerpt: The NS5A synergistic inhibitory effect of test compounds can be determined using various amounts of an NS5A-targeting compound with titration of a second compound of interest. […] In one embodiment, the HCV genotype strain can be genotype 1a containing a change at amino acid 30 of the NS5A protein consisting of glutamine to glutamate. The test compound can be chosen from compounds listed above or from others present in the literature.

SMILES	Fold-Synergistic 1a (Q30E)
CC(C)(C)C(=O)N1CCC[C@H]1c1ncc(-c2ccc(-c3ccc(-c4cnc([C@@H]5CCCN5C(=O)C(C)(C)C)[nH]4)cc3)cc2)[nH]1 [Compound S-177]	<10 fold
CC(C)(C)[C@H](O)C(=O)N[C@H](c1nc(-c2ccc(-c3ccc(-c4c[nH]c([C@@H](NC(=O)[C@@H](O)C(C)(C)C)C(C)(C)C)n4)cc3)cc2)c[nH]1)C(C)(C)C [Compound L-76]	>100 fold
CC(C)(C)C(=O)N1C[C@H](F)C[C@H]1C(=O)N[C@H](c1nc(-c2ccc(-c3ccc(-c4c[nH]c([C@@H](NC(=O)[C@@H]5C[C@@H](F)CN5C(=O)C(C)(C)C)C(C)(C)C)n4)cc3)cc2)c[nH]1)C(C)(C)C [Compound W-105]	>100 fold
CC(C)(C)[C@H](NC(=O)[C@@H](O)C1CCCCC1)c1nc(-c2ccc(-c3ccc(-c4c[nH]c([C@@H](NC(=O)[C@@H](O)C5CCCCC5)C(C)(C)C)n4)cc3)cc2)c[nH]1 [Compound L-77]	>100 fold
Cc1nn(C)c2ncc(C(=O)N3CCC[C@H]3c3ncc(-c4ccc(-c5ccc(-c6cnc([C@@H]7CCCN7C(=O)c7cnc8c(c(C)nn8C)c7Cl)[nH]6)cc5)cc4)[nH]3)c(Cl)c12 [Compound S-132]	<10 fold
O=C(c1csc(-c2ccccc2)n1)N1CCC[C@H]1c1ncc(-c2ccc(-c3ccc(-c4cnc([C@@H]5CCCN5C(=O)c5csc(-c6ccccc6)n5)[nH]4)cc3)cc2)[nH]1 [Compound S-138]	>100 fold
N#Cc1ccccc1C(=O)N1CCC[C@H]1c1ncc(-c2ccc(-c3ccc(-c4cnc([C@@H]5CCCN5C(=O)c5ccccc5C#N)[nH]4)cc3)cc2)[nH]1 [Compound S-127]	<10 fold
COC(=O)N[C@H](C(=O)NC1(c2nc(-c3ccc(-c4ccc(-c5c[nH]c(C6(NC(=O)[C@@H](NC(=O)OC)C(C)C)CC=CC6)n5)cc4)cc3)c[nH]2)CC=CC1)C(C)C [Compound N-15]	<10 fold
CC(C)(C)[C@H](NC(=O)C(=O)N1CCCCCC1)c1nc(-c2ccc(-c3ccc(-c4c[nH]c([C@@H](NC(=O)C(=O)N5CCCCCC5)C(C)(C)C)n4)cc3)cc2)c[nH]1 [Compound W-32]	>100 fold
CC(C)(NCC(F)(F)F)C(=O)N[C@H](c1nc(-c2ccc(-c3ccc(-c4c[nH]c([C@@H](NC(=O)C(C)(C)NCC(F)(F)F)C(C)(C)C)n4)cc3)cc2)c[nH]1)C(C)(C)C [Compound L-50]	>100 fold
COC(=O)N[C@H](C(=O)N[C@@H](C)c1nc(-c2ccc(-c3ccc(-c4c[nH]c([C@H](C)NC(=O)[C@@H](NC(=O)OC)C(C)C)n4)cc3)cc2)c[nH]1)C(C)C [Compound N-38]	<10 fold
CC(C)CC(=O)N[C@@H](C)c1nc(-c2ccc(-c3ccc(-c4c[nH]c([C@H](C)NC(=O)CC(C)C)n4)cc3)cc2)c[nH]1 [Compound N-39]	>10 fold
CC(C)[C@H](NC(=O)c1cc(Cl)ccc1F)c1nc(-c2ccc3c(c2)Cc2cc(-c4c[nH]c([C@@H](NC(=O)c5cc(Cl)ccc5F)C(C)C)n4)ccc2-3)c[nH]1 [Compound N-73]	>100 fold
CC(C)(C)[C@H](NC(=O)C1(C2(O)CCOCC2)CCC1)c1ncc(-c2ccc(-c3ccc(-c4cnc([C@@H](NC(=O)C5(C6(O)CCOCC6)CCC5)C(C)(C)C)[nH]4)cc3)cc2)[nH]1 [Compound B84]	>100 fold
CC1([C@H](NC(=O)C(C)(C)C2(O)CCC(F)(F)CC2)c2nc(-c3ccc(-c4ccc(-c5c[nH]c([C@@H](NC(=O)C(C)(C)C6(O)CCC(F)(F)CC6)C6(C)CC6)n5)cc4)cc3)c[nH]2)CC1 [Compound P-144]	>100 fold
COC(C)(C)C(=O)N[C@H](c1nc(-c2ccc(-c3ccc(-c4c[nH]c([C@@H](NC(=O)C(C)(C)OC)C(C)C)n4)c(F)c3)cc2)c[nH]1)C(C)C [Compound N-87]	>100 fold
O=C(C(c1ccccc1)c1ccccc1)N1CCC[C@H]1c1ncc(-c2ccc(-c3ccc(-c4cnc([C@@H]5CCCN5C(=O)C(c5ccccc5)c5ccccc5)[nH]4)cc3)cc2)[nH]1 [Compound S-146]	<10 fold
Cn1cccc1C(=O)N1CCC[C@H]1c1ncc(-c2ccc(-c3ccc(-c4cnc([C@@H]5CCCN5C(=O)c5cccn5C)[nH]4)cc3)cc2)[nH]1 [Compound S-175]	<10 fold
CC(C)CC(=O)N[C@@H](c1ccccc1)c1nc(-c2ccc(-c3ccc(-c4c[nH]c([C@@H](NC(=O)CC(C)C)c5ccccc5)n4)cc3)cc2)c[nH]1 [Compound P-5]	>100 fold
CC(C)(C)[C@H](NC(=O)C1CCCCS1)c1nc(-c2ccc(-c3ccc(-c4c[nH]c([C@@H](NC(=O)C5CCCCS5)C(C)(C)C)n4)cc3)cc2)c[nH]1 (stereo partly shown) [Compound P-173]	>100 fold

SMILES	Fold-Synergistic 1a (Q30E)
CC(C)(C)[C@H](NC(=O)Cc1ccccc1OC(F)(F)F)c1nc(-c2ccc(-c3ccc(-c4c[nH]c([C@@H](NC(=O)Cc5ccccc5OC(F)(F)F)C(C)(C)C)n4)cc3)cc2)c[nH]1 [Compound Y-73]	>100 fold
O=C(Cc1ccccc1F)N1CCC[C@H]1c1ncc(-c2ccc(-c3ccc(-c4cnc([C@@H]5CCCN5C(=O)Cc5ccccc5F)[nH]4)cc3)cc2)[nH]1 [Compound S-178]	<10 fold
CC(C)(C)[C@H](NC(=O)C(F)(F)C(O)c1cccnc1)c1nc(-c2ccc(-c3ccc(-c4c[nH]c([C@@H](NC(=O)C(F)(F)C(O)c5cccnc5)C(C)(C)C)n4)cc3)cc2)c[nH]1 (stereo partly shown) [Compound S-283]	>100 fold
CC(C)(C)OC(=O)N[C@]1(C(=O)N[C@H](c2nc(-c3ccc(-c4ccc(-c5c[nH]c([C@@H](NC(=O)[C@@]6(NC(=O)OC(C)(C)C)C[C@H]6C6CC6)C(C)(C)C)n5)cc4)cc3)c[nH]2)C(C)(C)C)C[C@H]1C1CC1 [Compound W-3]	>100 fold
CC(C)(C)OC(=O)N1CC2(CC2)C[C@H]1C(=O)N[C@H](c1nc(-c2ccc(-c3ccc(-c4c[nH]c([C@@H](NC(=O)[C@@H]5CC6(CC6)CN5C(=O)OC(C)(C)C)C(C)(C)C)n4)cc3)cc2)c[nH]1)C(C)(C)C [Compound W-94]	>100 fold
O=C(CC(c1ccccc1)c1ccccc1)N1CCC[C@H]1c1ncc(-c2ccc(-c3ccc(-c4cnc([C@@H]5CCCN5C(=O)CC(c5ccccc5)c5ccccc5)[nH]4)cc3)cc2)[nH]1 [Compound S-143]	>10 fold
CC(C)[C@H](NC(=O)C(=O)N1C[C@@H](C)O[C@@H](C)C1)c1nc(-c2ccc(-c3ccc(-c4c[nH]c([C@@H](NC(=O)C(=O)N5C[C@@H](C)O[C@@H](C)C5)C(C)C)n4)cc3)cc2)c[nH]1 [Compound W-54]	>100 fold
C[C@H]1C[C@@H](C(=O)N[C@H](c2nc(-c3ccc(-c4ccc(-c5c[nH]c([C@@H](NC(=O)[C@@H]6C[C@H](C)CN6C(=O)OC(C)(C)C)C(C)(C)C)n5)cc4)cc3)c[nH]2)C(C)(C)C)N(C(=O)OC(C)(C)C)C1 [Compound W-68]	>100 fold
CC(C)[C@H](NC(=O)c1ccccc1F)c1nc(-c2ccc(-c3ccc(-c4c[nH]c([C@@H](NC(=O)c5ccccc5F)C(C)C)n4)c(F)c3)cc2)c[nH]1 [Compound N-92]	>100 fold
C[C@@H](OC(=O)N(C)C1(C(=O)N[C@H](c2nc(-c3ccc(-c4ccc(-c5c[nH]c([C@@H](NC(=O)C6(N(C)C(=O)O[C@H](C)C(F)(F)F)CC6)C(C)(C)C)n5)cc4)cc3)c[nH]2)C(C)(C)C)CC1)C(F)(F)F [Compound L-44]	>100 fold
COC(=O)c1ccccc1C(=O)N1CCC[C@H]1c1ncc(-c2ccc(-c3ccc(-c4cnc([C@@H]5CCCN5C(=O)c5ccccc5C(=O)OC)[nH]4)cc3)cc2)[nH]1 [Compound S-115]	<10 fold
CC(C)(NC1CCCCC1)C(=O)N[C@H](c1nc(-c2ccc(-c3ccc(-c4c[nH]c([C@@H](NC(=O)C(C)(C)NC5CCCCC5)C(C)(C)C)n4)cc3)cc2)c[nH]1)C(C)(C)C [Compound P-174]	>100 fold
O=C(C1CCC1)N1CCC[C@H]1c1ncc(-c2ccc(-c3ccc(-c4cnc([C@@H]5CCCN5C(=O)C5CCC5)[nH]4)cc3)cc2)[nH]1 [Compound S-162]	<10 fold
CC(C)(C)[C@H](NC(=O)c1ccccc1F)c1nc(-c2ccc(-c3ccc(-c4c[nH]c([C@@H](NC(=O)c5ccccc5F)C(C)(C)C)n4)c(F)c3)cc2)c[nH]1 [Compound N-95]	>100 fold
Cc1ncccc1C(=O)N1CCC[C@H]1c1ncc(-c2ccc(-c3ccc(-c4cnc([C@@H]5CCCN5C(=O)c5cccnc5C)[nH]4)cc3)cc2)[nH]1 [Compound S-188]	<10 fold
CC(C)(C)[C@H](NC(=O)C(O)(C1CC1)C1CC1)c1nc(-c2ccc(-c3ccc(-c4c[nH]c([C@@H](NC(=O)C(O)(C5CC5)C5CC5)C(C)(C)C)n4)cc3)cc2)c[nH]1 [Compound P-169]	>100 fold
CC(C)(C)[C@H](NC(=O)C1(CO)CCCCO1)c1nc(-c2ccc(-c3ccc(-c4c[nH]c([C@@H](NC(=O)C5(CO)CCCCO5)C(C)(C)C)n4)cc3)cc2)c[nH]1 (stereo partly shown) [Compound P-182]	>100 fold
CC(C)(C)[C@H](NC(=O)C(=O)N1CCOCC1)c1nc(-c2ccc(-c3ccc(-c4c[nH]c([C@@H](NC(=O)C(=O)N5CCOCC5)C(C)(C)C)n4)cc3)cc2)c[nH]1 [Compound W-25]	>100 fold
CC(=O)N(C)C1(C(=O)N[C@H](c2nc(-c3ccc(-c4ccc(-c5c[nH]c([C@@H](NC(=O)C6(N(C)C(C)=O)CC6)C(C)(C)C)n5)cc4)cc3)c[nH]2)C(C)(C)C)CC1 [Compound L-11]	>100 fold
O=C(c1cccnc1)N1CCC[C@H]1c1ncc(-c2ccc(-c3ccc(-c4cnc([C@@H]5CCCN5C(=O)c5cccnc5)[nH]4)cc3)cc2)[nH]1 [Compound S-185]	<10 fold

Reference: patent US9326973B2, “Hepatitis C virus inhibitors” (priority 2012, dated 2016)
